Measured values taken from ChEMBL document CHEMBL5728451, “Pyrimidinone derivatives as SHP2 antagonists” (2021).

Molecular target: T1, Tyrosine-protein phosphatase non-receptor type 11 (Homo sapiens, UniProt Q06124)
T1 sequence (Q06124 whole entry): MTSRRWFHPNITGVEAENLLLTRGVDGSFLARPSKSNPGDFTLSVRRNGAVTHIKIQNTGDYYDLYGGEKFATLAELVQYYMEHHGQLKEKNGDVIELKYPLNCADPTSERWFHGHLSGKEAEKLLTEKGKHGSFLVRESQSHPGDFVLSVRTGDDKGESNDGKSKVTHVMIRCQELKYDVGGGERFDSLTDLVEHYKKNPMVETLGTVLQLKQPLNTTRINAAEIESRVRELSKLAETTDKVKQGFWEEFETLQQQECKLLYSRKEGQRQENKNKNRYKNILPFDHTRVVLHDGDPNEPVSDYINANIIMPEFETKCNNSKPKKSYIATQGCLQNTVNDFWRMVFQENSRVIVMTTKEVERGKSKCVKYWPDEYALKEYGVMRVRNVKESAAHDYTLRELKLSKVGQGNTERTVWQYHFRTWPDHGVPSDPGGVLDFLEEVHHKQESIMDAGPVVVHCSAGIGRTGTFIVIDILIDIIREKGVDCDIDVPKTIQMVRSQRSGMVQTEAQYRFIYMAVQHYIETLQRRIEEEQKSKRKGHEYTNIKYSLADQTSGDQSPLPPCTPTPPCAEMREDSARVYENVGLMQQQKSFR
Assay: Biochemical Assay: The inhibition of SHP2 by compounds of the invention was monitored using the surrogate substrate DiFMUP after protein activation by a peptide bearing two appropriately spaced phosphotyrosine. Full length SHP2 protein (Recombinant HumanSHP-2, E. coli derived Ser2Arg593, N-terminal 6His tag from R&D systems; […]) was incubated with activating peptide, IRSI_2pY (New England …

Compound | IC50
Cc1nc(N2CCC3(CCCC3CN)CC2)cc(=O)n1-c1cccc(Cl)c1Cl (configuration not stated) | 2100 nM
Cc1nc(N2CCC(C)(CN)CC2)cc(=O)n1-c1cccc(C(F)(F)F)c1Cl | 1500 nM
